# Experimental data reported in patent publication US8124793B2, “Derivatives of ethylene methanedisulfonate as cancer chemotherapeutic agents” (priority 2007, dated 2012).
# Assays:
# Type in all cases: cell-based
# M14 = assay: NCI screen, growth of human tumor cells: Melanoma M14; conditions: M14 (Melanoma), 10^−4 molar
# Procedure: (§1) In the NCI screening process, each compound was tested and described by a minimum of 60 data points. The test data include, but are not limited to the type of cancer, the molar concentration used in the screen, and the percent growth of the cancer. In some cases, NMR and elemental analysis were used for structural assignment.
# HCC-2998 = assay: NCI screen, growth of human tumor cells: HCC-2998 (listed under Non-Small Cell Lung); conditions: for percent of growth of human tumor cells: HCC-2998 (under Non-Small Cell Lung), 10^−4 molar
# Procedure: as §1
# human cancer cells = assay: NCI screen summary over the cancers tested (negative growth of human cancer cells); conditions: 10^−4 M conc.; cancers with negative growth / cancers tested
# Procedure: as §1
# The derivatives in the tables are grouped using the same category as in the tables 1-6.
# UO-31 = assay: NCI screen, growth of human tumor cells: Renal Cancer UO-31; conditions: UO-31 (Renal Cancer), 10^−4 molar
# Procedure: as §1
# SR = assay: NCI screen, growth of human tumor cells: Leukemia SR; conditions: for % Growth: SR
# Procedure: as §1
# DU-145 = assay: NCI screen, growth of human tumor cells: Prostate Cancer DU-145; conditions: DU-145 (Prostate Cancer), 10^−4 molar
# Procedure: as §1
# NCI-H522 = assay: NCI screen, growth of human tumor cells: Non-Small Cell Lung NCI-H522; conditions: NCI-H522 (Non-Small Cell Lung), 10^−4 molar
# Procedure: as §1
# MOLT-4 = assay: NCI screen, growth of human tumor cells: Leukemia MOLT-4; conditions: for percent of growth of human tumor cells: MOLT-4 (Leukemia), 10^−4 molar
# Procedure: as §1
# COLO205 = assay: NCI screen, growth of human tumor cells: Colon Cancer COLO205; conditions: COLO205 (Colon Cancer), 10^−4 molar
# Procedure: as §1
# K562 = assay: NCI screen, growth of human tumor cells: Leukemia K562; conditions: K562 (Leukemia), 10^−4 molar
# Procedure: as §1
# MDA-MB-435 = assay: NCI screen, growth of human tumor cells: Breast Cancer MDA-MB-435; conditions: for percent of growth of human tumor cells: MDA-MB-435 (Breast Cancer), 10^−4 molar
# Procedure: as §1
# CCRF-CEM = assay: NCI screen, growth of human tumor cells: Leukemia CCRF-CEM; conditions: CCRF-CEM (Leukemia), 10^−4 molar
# Procedure: as §1
# HL-60 (TB) = assay: NCI screen, growth of human tumor cells: Leukemia HL-60 (TB); conditions: HL-60 (TB) (Leukemia), 10^−4 molar
# Procedure: as §1
# 786-0 = assay: NCI screen, growth of human tumor cells: Renal Cancer 786-0; conditions: 786-0 (Renal Cancer), 10^−4 molar
# Procedure: as §1
# SF-539 = assay: NCI screen, growth of human tumor cells: CNS Cancer SF-539; conditions: SF-539 (CNS Cancer), 10^−4 molar
# Procedure: as §1
# SF-268 = assay: NCI screen, growth of human tumor cells: CNS Cancer SF-268; conditions: SF-268 (CNS Cancer), 10^−4 molar
# Procedure: as §1
# HS 578T = assay: NCI screen, growth of human tumor cells: Breast Cancer HS 578T; conditions: HS 578T (Breast Cancer), 10^−4 molar
# Procedure: as §1
# HOP-62 = assay: NCI screen, growth of human tumor cells: Non-Small Cell Lung HOP-62; conditions: HOP-62, 10^−4 molar
# Procedure: as §1
# U-251 = assay: NCI screen, growth of human tumor cells: CNS Cancer U-251; conditions: U-251 (CNS Cancer), 10^−4 molar
# Procedure: as §1
# SNB-19 = assay: NCI screen, growth of human tumor cells: CNS Cancer SNB-19; conditions: SNB-19 (CNS Cancer), 10^−4 molar
# Procedure: as §1
# ACHN = assay: NCI screen, growth of human tumor cells: Renal Cancer ACHN; conditions: ACHN (Renal Cancer), 10^−4 molar
# Procedure: as §1
# SNB-75 = assay: NCI screen, growth of human tumor cells: CNS Cancer SNB-75; conditions: SNB-75 (CNS Cancer), 10^−4 molar
# Procedure: as §1
# NCI-H460 = assay: NCI screen, growth of human tumor cells: Non-Small Cell Lung NCI-H460; conditions: NCI-H460 (Non-Small Cell Lung), 10^−4 molar
# Procedure: as §1
# UACC-62 = assay: NCI screen, growth of human tumor cells: Melanoma UACC-62; conditions: UACC-62 (Melanoma), 10^−4 molar
# Procedure: as §1
# CAKI-1 = assay: NCI screen, growth of human tumor cells: Renal Cancer CAKI-1; conditions: CAKI-1 (Renal Cancer), 10^−4 molar
# Procedure: as §1
# UACC-257 = assay: NCI screen, growth of human tumor cells: Melanoma UACC-257; conditions: UACC-257 (Melanoma), 10^−4 molar
# Procedure: as §1
# OVCAR-3 = assay: NCI screen, growth of human tumor cells: Ovarian Cancer OVCAR-3; conditions: OVCAR-3 (Ovarian Cancer), 10^−4 molar
# Procedure: as §1
# HCT-15 = assay: NCI screen, growth of human tumor cells: Colon Cancer HCT-15; conditions: HCT-15 (Colon Cancer), 10^−4 molar
# Procedure: as §1
# BT-549 = assay: NCI screen, growth of human tumor cells: Breast Cancer BT-549; conditions: BT-549 (Breast Cancer), 10^−4 molar
# Procedure: as §1
# SK-MEL-5 = assay: NCI screen, growth of human tumor cells: Melanoma SK-MEL-5; conditions: SK-MEL-5 (Melanoma), 10^−4 molar
# Procedure: as §1
# NCI-H23 = assay: NCI screen, growth of human tumor cells: Non-Small Cell Lung NCI-H23; conditions: NCI-H23 (Non-Small Cell Lung), 10^−4 molar
# Procedure: as §1
# HOP-92 = assay: NCI screen, growth of human tumor cells: Non-Small Cell Lung HOP-92; conditions: HOP-92 (Non-Small Cell Lung), 10^−4 molar
# Procedure: as §1
# MALME-3M = assay: NCI screen, growth of human tumor cells: Melanoma MALME-3M; conditions: MALME-3M (Melanoma), 10^−4 molar
# Procedure: as §1
# OVCAR-4 = assay: NCI screen, growth of human tumor cells: Ovarian Cancer OVCAR-4; conditions: OVCAR-4 (Ovarian Cancer), 10^−4 molar
# Procedure: as §1
# LOXIMVI = assay: NCI screen, growth of human tumor cells: Melanoma LOXIMVI; conditions: LOXIMVI (Melanoma), 10^−4 molar
# Procedure: as §1
# IGROVI = assay: NCI screen, growth of human tumor cells: Ovarian Cancer IGROVI; conditions: IGROVI (Ovarian Cancer), 10^−4 molar
# Procedure: as §1
# SN12C = assay: NCI screen, growth of human tumor cells: Renal Cancer SN12C; conditions: SN12C (Renal Cancer), 10^−4 molar
# Procedure: as §1
# MCF7/ADR-RES = assay: NCI screen, growth of human tumor cells: Breast Cancer MCF7/ADR-RES; conditions: MCF7/ADR-RES (Breast Cancer), 10^−4 molar
# Procedure: as §1
# MCF 7 = assay: NCI screen, growth of human tumor cells: Breast Cancer MCF 7; conditions: MCF 7 (Breast Cancer), 10^−4 molar
# Procedure: as §1
SMILES,Percentage of cancers showing negative growth cancers tested (human cancer cells),percent of growth of human tumor cells (UO-31) [%],% Growth (SR; 10^−4 molar) [%],% Growth (SR; 10^−5 molar) [%],percent of growth of human tumor cells (DU-145) [%],percent of growth of human tumor cells (NCI-H522) [%],percent of growth of human tumor cells (COLO205) [%],percent of growth of human tumor cells (K562) [%],percent of growth of human tumor cells (MDA-MB-435) [%],percent of growth of human tumor cells (CCRF-CEM) [%],percent of growth of human tumor cells (HL-60 (TB)) [%],percent of growth of human tumor cells (SF-539) [%],percent of growth of human tumor cells (HCC-2998) [%],percent of growth of human tumor cells (SF-268) [%],percent of growth of human tumor cells (HS 578T) [%],percent of growth of human tumor cells (MOLT-4) [%],percent of growth of human tumor cells (U-251) [%],percent of growth of human tumor cells (SNB-75) [%],percent of growth of human tumor cells (NCI-H460) [%],percent of growth of human tumor cells (UACC-62) [%],other results
CC1(C)OCC(COC(=O)C(=O)C2(C3=C(Cl)C(=O)c4ccccc4C3=O)S(=O)(=O)OCCOS2(=O)=O)O1 (stereo not shown) [NSC 737278],10^−4 M conc. = 8/12 = 67%,4,−37,20,6,−30,−9,12,−45,22,−25,,,,,,,,,,"percent of growth of human tumor cells (M14): −4%; % Growth (HCC-2998; HCC-2998, 10^−4 molar): −15%; % Growth (HCC-2998; HCC-2998, 10^−5 molar): 41%; % Growth (HCC-2998; HCC-2998, 10^−6 molar): 45%; % Growth (HCC-2998; HCC-2998, 10^−7 molar): 64%; % Growth (SR; 10^−6 molar): 33%; % Growth (SR; 10^−7 molar): 56%; % Growth (MOLT-4; MOLT-4, 10^−4 molar): −41%; % Growth (MOLT-4; MOLT-4, 10^−5 molar): 53%"
CC1(C)OCC(COC(=O)C(=O)OC(C(=O)OCC2COC(C)(C)O2)=C2S(=O)(=O)OCCOS2(=O)=O)O1 (stereo not shown) [NSC 737275],10^−4 M conc. = 1/5 = 20%,,,,,,,,,,,15,−12,24,,,,,,,"percent of growth of human tumor cells (786-0): 17%; percent of growth of human tumor cells (SR; SR (Leukemia), 10^−4 molar): 7%"
CC1=C(CC2(C(=O)C(=O)OCC3COC(C)(C)O3)S(=O)(=O)OCCOS2(=O)=O)C(=O)c2ccccc2C1=O (stereo not shown) [NSC 737277],10^−4 M conc. = 6/9 = 67%,22,−25,50,,,−8,5,−11,,−33,,,,24,−12,,,,,% Growth (HOP-62): −84%
CC1S(=O)(=O)OCCOS1(=O)=O [NSC 372239],2/12 = 17%,,,,,,,12,,−6,,28,,29,,12,16,28,2,−14,percent of growth of human tumor cells (SNB-19): 26%; percent of growth of human tumor cells (ACHN): 20%; percent of growth of human tumor cells (CAKI-1): 20%
CCOCC1(CC2=C(C)C(=O)c3ccccc3C2=O)S(=O)(=O)OCCOS1(=O)=O [NSC 698124],10^−4 M conc. = 8/25 = 32%,,,,27,−45,−25,,,,,,8,20,27,,20,11,11,−32,"percent of growth of human tumor cells (UACC-257): 12%; percent of growth of human tumor cells (OVCAR-3): −17%; percent of growth of human tumor cells (HCT-15): 15%; percent of growth of human tumor cells (BT-549): 27%; percent of growth of human tumor cells (SK-MEL-5): 9%; percent of growth of human tumor cells (NCI-H23): 16%; percent of growth of human tumor cells (HOP-92): 27%; percent of growth of human tumor cells (MALME-3M): −9%; percent of growth of human tumor cells (OVCAR-4): 14%; percent of growth of human tumor cells (LOXIMVI): −55%; percent of growth of human tumor cells (IGROVI): 6%; % Growth (MDA-MB-435; MDA-MB-435, 10^−4 molar): −74%; percent of growth of human tumor cells (SN12C): −25%; percent of growth of human tumor cells (MCF7/ADR-RES): 30%; percent of growth of human tumor cells (MCF 7): 19%"
